# Assay results as given in PMC6719172, “Inhibition of CpLIP2 Lipase Hydrolytic Activity by Four Flavonols (Galangin, Kaempferol, Quercetin, Myricetin) Compared to Orlistat and Their Binding Mechanisms Studied by Quenching of Fluorescence” (Molecules, 2019).
# What was measured:
# CpLIP2 lipase [1] = biological target: T1, CpLIP2 lipase (Candida parapsilosis, UniProt Q8NIN8); assay: Quenching of CpLIP2 intrinsic tryptophan fluorescence by flavonols (Stern–Volmer, Lehrer, van't Hoff analysis); type: binding; conditions: for KSV (Stern–Volmer quenching constant): CpLIP2 2.5 µM, pH 7.0, flavonol 2.5–25 µM (GAL 2.5–17.5 µM); for Kq (bimolecular quenching constant): Kq = KSV/τ0, τ0 1.59 ns; for KSV (accessible), Stern–Volmer quenching constant of the exposed W residues / fa (fraction of accessible W residues to the quencher): Lehrer equation; for ΔG (free energy change): ΔG = ΔH − TΔS; for Kd: Kd (dissociation constant); for order of magnitude of Kq: all temperatures of Table 1; for ΔS (entropy changes): van't Hoff plot, 298–328 K
# Source text: The fluorescence quenching spectra of CpLIP2 lipase submitted to increasing concentrations of GAL, KAE, QUE and MYR are shown in Figure 3. A remarkable quenching of the CpLIP2 fluorescence emission was observed. […] The fluorescence quenching is usually described by the linear Stern–Volmer Equations (2) and (3):(2) F0/F = 1 + Ksv [Q] = 1 + Kqτ0 [Q] (3) Kq=Ksv/τ0 where F0 and F are the intrinsic fluorescence intensities of CpLIP2 lipase (fluorophore) in absence or presence of quencher (flavonol), respectively. Kq is the bimolecular quenching constant, τ0 is the lifetime of the fluorophore in the absence of the quencher, [Q] is the concentration of the quencher, and KSV is the Stern–Volmer quenching constant.
# The mechanism of quenching, occurring between CpLIP2 lipase and flavonols, was characterized by determining the values of Kq and the thermodynamic parameters by varying the temperature. […] In both cases, the bimolecular quenching constant Kq can be calculated by the ratio between KSV and τ0, itself determined at 1.59 ns for Human Pancreatic Lipase.
# The inaccessible or buried residues are responsible for the remaining fluorescence, which is probably independent of the quencher concentration. […] An up-down curvature towards the x-axis has been shown for the four flavonols (Figure 4), indicating the presence of two populations of fluorophores, part of which would not be accessible. That means that some W residues are buried inside the lipase structure and that other residues are exposed to the solvent. Therefore, data were analyzed through the Lehrer equation, also known as the modified (or non-linear) Stern–Volmer Equation (4):(4) F0/ F0−F = 1/ fa Ksv 1/ [Q] +1/ fa
# For static quenching, the equilibrium between free and bound CpLIP2 lipase, when the ligand molecules bind independently to equivalent sites of macromolecules, can be described by the following Equation (5):(5) log10F0−F/F=nlog10[Q]+log10Ka where Ka is the binding constant and n the number of binding sites per CpLIP2 molecule.
# The results were determined for all flavonols tested at different temperatures from the plots of log10 F0 − F/F versus log10 [Q] and listed in Table 2. The plots show a linear relationship from which the slope equal to n and intercept on y-axis equal to log10 Ka. For the four flavonols, the Ka values increased when the temperatures increased. In addition, the n values were less than 1.0 in all cases and increased according to the temperature. […] Values of the dissociation constant of complexes were deduced from the Stern–Volmer Equation (6) and (7), for which Kd is expressed as the inverse of fa Ksv product. (6) F0/ F0−F= Kd 1/ [Q] +1 (7) Kd= 1/fa Ksv
# Thermodynamic parameters were calculated to determine the type of binding forces that contribute in the CpLIP2 lipase–flavonol interactions. […] Both the enthalpy (ΔH) and entropy changes (ΔS) can be estimated from the following van′t Hoff Equation (8):(8) Ln Ka = − ΔH /RT + ΔS /R
# The values of Gibbs binding free energy change (ΔG) are calculated from the following Equation (9):(9) ΔG= ΔH − TΔS
# To fill up the volume of 300 µL by well, 190 µL of sodium phosphate buffer solution (75 mM, pH 7.0) was added to each well to obtain final concentration at 50 mM. Then, 100 µL of ethanol absolute–water ultrapure (2:8, v/v) solution was added to obtain a final amount of ethanol […] in the well of 300 µL. […] The final concentration of ethanol during the experiments never exceeded 0.07% (v/v). The last step was to add 10 µL of lipase after to have optimized the final concentration of CpLIP2 equal to 2.5 µM for all our assays, giving the optimal fluorescence intensity for all measurements. The measurement of intrinsic fluorescence started after mechanical shaking for 30 s inside the multi-plate reader. […]
# CpLIP2 lipase [2] = biological target: T1, CpLIP2 lipase; assay: Fluorescence resonance energy transfer between CpLIP2 and flavonols (Förster theory); type: binding; conditions: for E (energy transfer efficiency) / J (overlap integral) / R0 (Förster distance) / r (distance between acceptor and donor) / r/R0: 2.5 µM, 308 K, pH 7.0; for R0 (Förster distance): values in Å; for r (distance between acceptor and donor): values in Å
# Source text: Fluorescence emission spectra of CpLIP2 lipase overlap the UV absorption spectrum of each flavonol studied, that may induce fluorescence resonance energy transfer (FRET) governed by the binding distance r between the protein behaving as energy donor and the flavonol energy acceptor. The binding distance r can be calculated via Förster theory with the following Equations (10) and (11):(10) E=1−F/ F0=R06/ R06+r^6 where E is the energy transfer efficiency, which is the photons fraction absorbed and transferred by the donor to the acceptor, F and F0 are the fluorescence intensities of donor (CpLIP2) in the presence or absence of acceptor (flavonol) at the same concentrations. The parameter r is the distance between acceptor and donor, and R0 is the Förster distance, which is the critical energy transfer distance when 50% of the excitation energy is transferred from the donor to the acceptor. […] The value of R0 ranges from 20–90 Å for biological macromolecules.
# [3] = cited from earlier work
# T1 sequence (Q8NIN8 entry or part of it): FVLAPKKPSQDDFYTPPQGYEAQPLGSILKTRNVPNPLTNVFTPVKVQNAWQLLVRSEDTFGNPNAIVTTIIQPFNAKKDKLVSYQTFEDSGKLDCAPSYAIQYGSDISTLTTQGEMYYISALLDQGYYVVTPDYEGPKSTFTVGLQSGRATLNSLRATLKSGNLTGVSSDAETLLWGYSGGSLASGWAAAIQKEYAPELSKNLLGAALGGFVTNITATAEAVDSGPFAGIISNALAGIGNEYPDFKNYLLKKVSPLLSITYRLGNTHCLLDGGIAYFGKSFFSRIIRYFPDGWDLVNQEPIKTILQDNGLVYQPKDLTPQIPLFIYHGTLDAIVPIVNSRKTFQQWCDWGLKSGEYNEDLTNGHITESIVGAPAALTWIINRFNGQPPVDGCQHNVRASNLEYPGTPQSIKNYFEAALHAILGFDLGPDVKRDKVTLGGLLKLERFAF
smiles,measurement,setting,value
"O=c1c(O)c(-c2ccc(O)c(O)c2)oc2cc(O)cc(O)c12 [QUE, quercetin]",Ka (association constant),CpLIP2 lipase [1]; 298 K,2034 ± 2 L/mol
same,n (number of binding sites),CpLIP2 lipase [1]; 298 K,0.78 ± 0.06
same,KSV (Stern–Volmer quenching constant),CpLIP2 lipase [1]; 298 K,1.8 ± 0.1 × 10^4 L·mol^−1
same,Kq (bimolecular quenching constant),CpLIP2 lipase [1]; 298 K,1.1e+13 M⁻¹ s⁻¹
same,"KSV (accessible), Stern–Volmer quenching constant of the exposed W residues",CpLIP2 lipase [1]; 298 K,70000 L/mol
same,fa (fraction of accessible W residues to the quencher),CpLIP2 lipase [1]; 298 K,0.54
same,ΔG (free energy change),CpLIP2 lipase [1]; 298 K,-10.1 kcal/mol
same,Ka (association constant),CpLIP2 lipase [1]; 308 K,1824 ± 9 L/mol
same,n (number of binding sites),CpLIP2 lipase [1]; 308 K,0.77 ± 0.05
same,KSV (Stern–Volmer quenching constant),CpLIP2 lipase [1]; 308 K,1.6 ± 0.6 × 10^4 L·mol^−1
same,Kq (bimolecular quenching constant),CpLIP2 lipase [1]; 308 K,1e+13 M⁻¹ s⁻¹
same,"KSV (accessible), Stern–Volmer quenching constant of the exposed W residues",CpLIP2 lipase [1]; 308 K,80000 L/mol
same,fa (fraction of accessible W residues to the quencher),CpLIP2 lipase [1]; 308 K,0.52
same,ΔG (free energy change),CpLIP2 lipase [1]; 308 K,-10.4 kcal/mol
same,Ka (association constant),CpLIP2 lipase [1]; 318 K,3041 ± 2 L/mol
same,n (number of binding sites),CpLIP2 lipase [1]; 318 K,0.81 ± 0.07
same,KSV (Stern–Volmer quenching constant),CpLIP2 lipase [1]; 318 K,1.6 ± 0.6 × 10^4 L·mol^−1
same,Kq (bimolecular quenching constant),CpLIP2 lipase [1]; 318 K,1e+13 M⁻¹ s⁻¹
same,"KSV (accessible), Stern–Volmer quenching constant of the exposed W residues",CpLIP2 lipase [1]; 318 K,70000 L/mol
same,fa (fraction of accessible W residues to the quencher),CpLIP2 lipase [1]; 318 K,0.55
same,ΔG (free energy change),CpLIP2 lipase [1]; 318 K,-10.8 kcal/mol
same,Ka (association constant),CpLIP2 lipase [1]; 328 K,4616 ± 3 L/mol
same,n (number of binding sites),CpLIP2 lipase [1]; 328 K,0.85 ± 0.11
same,KSV (Stern–Volmer quenching constant),CpLIP2 lipase [1]; 328 K,2.0 ± 0.7 × 10^4 L·mol^−1
same,Kq (bimolecular quenching constant),CpLIP2 lipase [1]; 328 K,1.3e+13 M⁻¹ s⁻¹
same,"KSV (accessible), Stern–Volmer quenching constant of the exposed W residues",CpLIP2 lipase [1]; 328 K,50000 L/mol
same,fa (fraction of accessible W residues to the quencher),CpLIP2 lipase [1]; 328 K,0.69
same,ΔG (free energy change),CpLIP2 lipase [1]; 328 K,-11.1 kcal/mol
same,Kd,CpLIP2 lipase [1]; 298 K,27 ± 6 µM
same,Kd,CpLIP2 lipase [1]; 308 K,24 ± 10 µM
same,Kd,CpLIP2 lipase [1]; 318 K,25 ± 10 µM
same,Kd,CpLIP2 lipase [1]; 328 K,31 ± 13 µM
same,fa (fraction of accessible W residues),CpLIP2 lipase [1]; across temperatures,0.55
same,order of magnitude of Kq,CpLIP2 lipase [1],~10^13 L mol^−1 s^−1
same,ΔS (entropy changes),CpLIP2 lipase [1],0.14 kJ·mol^−1·K^−1
same,percentage of transfer efficiency,CpLIP2 lipase [2],6%
same,E (energy transfer efficiency),CpLIP2 lipase [2],0.06
same,J (overlap integral),CpLIP2 lipase [2],12 × 10^14 nm^4·cm^−1·M^−1
same,R0 (Förster distance),CpLIP2 lipase [2],36.9 Å
same,r (distance between acceptor and donor),CpLIP2 lipase [2],58.7 Å
same,r/R0,CpLIP2 lipase [2],1.6
same,log10 P of partition between octanol and water phases,[3],2.9
"O=c1c(O)c(-c2ccccc2)oc2cc(O)cc(O)c12 [GAL, galangin]",Ka (association constant),CpLIP2 lipase [1]; 298 K,323 ± 8 L/mol
same,n (number of binding sites),CpLIP2 lipase [1]; 298 K,0.58 ± 0.18
same,KSV (Stern–Volmer quenching constant),CpLIP2 lipase [1]; 298 K,2.9 ± 0.1 × 10^4 L·mol^−1
same,Kq (bimolecular quenching constant),CpLIP2 lipase [1]; 298 K,1.8e+13 M⁻¹ s⁻¹
same,"KSV (accessible), Stern–Volmer quenching constant of the exposed W residues",CpLIP2 lipase [1]; 298 K,360000 L/mol
same,fa (fraction of accessible W residues to the quencher),CpLIP2 lipase [1]; 298 K,0.37
same,ΔG (free energy change),CpLIP2 lipase [1]; 298 K,-20.2 kcal/mol
same,Ka (association constant),CpLIP2 lipase [1]; 308 K,502 ± 10 L/mol
same,n (number of binding sites),CpLIP2 lipase [1]; 308 K,0.63 ± 0.21
same,KSV (Stern–Volmer quenching constant),CpLIP2 lipase [1]; 308 K,2.4 ± 0.9 × 10^4 L·mol^−1
same,Kq (bimolecular quenching constant),CpLIP2 lipase [1]; 308 K,1.5e+13 M⁻¹ s⁻¹
same,"KSV (accessible), Stern–Volmer quenching constant of the exposed W residues",CpLIP2 lipase [1]; 308 K,360000 L/mol
same,fa (fraction of accessible W residues to the quencher),CpLIP2 lipase [1]; 308 K,0.34
same,ΔG (free energy change),CpLIP2 lipase [1]; 308 K,-20.9 kcal/mol
same,Ka (association constant),CpLIP2 lipase [1]; 318 K,616 ± 10 L/mol
same,n (number of binding sites),CpLIP2 lipase [1]; 318 K,0.66 ± 0.21
same,KSV (Stern–Volmer quenching constant),CpLIP2 lipase [1]; 318 K,2.1 ± 0.8 × 10^4 L·mol^−1
same,Kq (bimolecular quenching constant),CpLIP2 lipase [1]; 318 K,1.3e+13 M⁻¹ s⁻¹
same,"KSV (accessible), Stern–Volmer quenching constant of the exposed W residues",CpLIP2 lipase [1]; 318 K,290000 L/mol
same,fa (fraction of accessible W residues to the quencher),CpLIP2 lipase [1]; 318 K,0.33
same,ΔG (free energy change),CpLIP2 lipase [1]; 318 K,-21.6 kcal/mol
same,n (number of binding sites),CpLIP2 lipase [1]; 328 K,0.66 ± 0.04
same,KSV (Stern–Volmer quenching constant),CpLIP2 lipase [1]; 328 K,1.5 ± 0.6 × 10^4 L·mol^−1
same,Kq (bimolecular quenching constant),CpLIP2 lipase [1]; 328 K,1e+13 M⁻¹ s⁻¹
same,"KSV (accessible), Stern–Volmer quenching constant of the exposed W residues",CpLIP2 lipase [1]; 328 K,420000 L/mol
same,fa (fraction of accessible W residues to the quencher),CpLIP2 lipase [1]; 328 K,0.25
same,ΔG (free energy change),CpLIP2 lipase [1]; 328 K,-22.3 kcal/mol
same,Kd,CpLIP2 lipase [1]; 298 K,8 ± 3 µM
same,Kd,CpLIP2 lipase [1]; 308 K,8 ± 4 µM
same,Kd,CpLIP2 lipase [1]; 318 K,11 ± 6 µM
same,Kd,CpLIP2 lipase [1]; 328 K,10 ± 6 µM
same,order of magnitude of Kq,CpLIP2 lipase [1],~10^13 L mol^−1 s^−1
same,ΔS (entropy changes),CpLIP2 lipase [1],0.28 kJ·mol^−1·K^−1
same,percentage of transfer efficiency,CpLIP2 lipase [2],24%
same,E (energy transfer efficiency),CpLIP2 lipase [2],0.24
same,J (overlap integral),CpLIP2 lipase [2],0.8 × 10^14 nm^4·cm^−1·M^−1
same,R0 (Förster distance),CpLIP2 lipase [2],23.6 Å
same,r (distance between acceptor and donor),CpLIP2 lipase [2],28.5 Å
same,r/R0,CpLIP2 lipase [2],1.2
same,log10 P of partition between octanol and water phases,[3],3.9
same,log10D (octanol/water at pH 7.4),[3]; pH 7.4,0.7
